For 4 compounds, EC50, AC50 and IC50 results are on record in ChEMBL document CHEMBL1201862, “PubChem BioAssay data set” (2004).

Test [1] has as its target Delta-type opioid receptor (Homo sapiens, UniProt P41143). The experiment in a line: Counterscreen for agonists of heterodimerization of the mu 1 (OPRM1) and delta 1 (OPRD1) opioid receptors: Luminescence-based cell-based high throughput dose response assay to identify agonists of OPRD1 homodimerization. [Related pubchem assays (depositor defined):AID504326, AID504355, AID504692, AID504904, AID504905]. Type of test: functional. On the technique in general: The purpose of a counterscreen is to sort out artefacts and off-target activity.

In test [2] the target is T1, Short transient receptor potential channel 4 (Mus musculus, UniProt Q9QUQ5).
T1 sequence (Q9QUQ5 whole entry): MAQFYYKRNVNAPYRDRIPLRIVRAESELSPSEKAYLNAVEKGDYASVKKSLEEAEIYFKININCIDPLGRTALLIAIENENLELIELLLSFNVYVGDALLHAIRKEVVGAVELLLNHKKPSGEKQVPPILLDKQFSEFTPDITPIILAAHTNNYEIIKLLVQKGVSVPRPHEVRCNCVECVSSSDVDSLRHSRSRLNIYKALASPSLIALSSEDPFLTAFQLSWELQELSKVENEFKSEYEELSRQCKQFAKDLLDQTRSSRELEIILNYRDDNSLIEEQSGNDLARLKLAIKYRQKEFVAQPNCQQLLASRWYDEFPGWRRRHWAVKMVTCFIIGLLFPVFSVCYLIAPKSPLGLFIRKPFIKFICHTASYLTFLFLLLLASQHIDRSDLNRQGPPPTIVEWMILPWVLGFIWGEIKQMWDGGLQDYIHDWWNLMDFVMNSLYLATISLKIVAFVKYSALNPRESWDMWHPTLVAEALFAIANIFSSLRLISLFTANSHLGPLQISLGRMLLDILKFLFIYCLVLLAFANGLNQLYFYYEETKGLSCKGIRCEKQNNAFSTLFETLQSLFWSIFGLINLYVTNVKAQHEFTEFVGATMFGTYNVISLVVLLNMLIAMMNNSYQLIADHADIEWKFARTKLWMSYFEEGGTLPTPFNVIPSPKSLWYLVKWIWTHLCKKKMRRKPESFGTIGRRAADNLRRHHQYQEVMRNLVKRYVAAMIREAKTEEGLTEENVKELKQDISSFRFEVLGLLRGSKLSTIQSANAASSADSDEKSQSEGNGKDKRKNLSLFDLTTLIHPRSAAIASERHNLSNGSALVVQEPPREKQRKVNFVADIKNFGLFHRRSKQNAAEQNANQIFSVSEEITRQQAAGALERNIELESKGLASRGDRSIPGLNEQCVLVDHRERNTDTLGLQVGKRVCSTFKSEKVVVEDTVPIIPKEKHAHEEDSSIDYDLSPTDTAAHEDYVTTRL
The experiment in a line: mouse TRPC4 channel inhibitors, dose response, cell-based, HEK293 TRPC4/mu-opioid, Fluo-4 calcium (AID 434942).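 Also: potency of inhibitors blocking the TRPC4 calcium response.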 Type of test: functional.

The target of test [3] is T1, Short transient receptor potential channel 4. Put plainly: mouse TRPC4 channel activators, dose response, cell-based, HEK293 TRPC4/mu-opioid, Fluo-4 calcium (AID 434937). Format: functional.
For test [4], the target named is Mu-type opioid receptor (Homo sapiens, UniProt P35372). The experiment in a line: Counterscreen for agonists of heterodimerization of the mu 1 (OPRM1) and delta 1 (OPRD1) opioid receptors: Luminescence-based cell-based high throughput dose response assay to identify agonists of OPRM1 homodimerization. Format: functional.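 Also: U2OS cells expressing OPRM1 and beta-arrestin as split beta-galactosidase partners.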
The target of test [5] is 5-hydroxytryptamine receptor 5A (Homo sapiens, UniProt P47898). The experiment in a line: Counterscreen for agonists of OPRM1-OPRD1 heterodimerization: luminescence-based cell-based high throughput dose response assay to identify agonists of 5-hydroxytryptamine (serotonin) 5A receptor (HTR5A). [Related pubchem assays (depositor defined):AID504326, AID504355, AID504692, AID504904, AID504905]. Format: functional.

Test [6] concerns the target Cytochrome P450 2C19 (Homo sapiens, UniProt P33261). Put plainly: Cytochrome panel assay with activity outcomes. Panel member name: p450-cyp2c19 Compounds with AC50 equal or less than 10 uM are considered active. Type of test: functional. The conditions noted are these: read-out: AC50.
The target in test [7] is Cytochrome P450 3A4 (Homo sapiens, UniProt P08684).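 Also: CYP3A4 tested as one member of a cytochrome P450 panel screen.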
Test [8] has as its target T2, Protein RecA (Mycobacterium tuberculosis, UniProt P9WHJ3).
T2 sequence (P9WHJ3 whole entry): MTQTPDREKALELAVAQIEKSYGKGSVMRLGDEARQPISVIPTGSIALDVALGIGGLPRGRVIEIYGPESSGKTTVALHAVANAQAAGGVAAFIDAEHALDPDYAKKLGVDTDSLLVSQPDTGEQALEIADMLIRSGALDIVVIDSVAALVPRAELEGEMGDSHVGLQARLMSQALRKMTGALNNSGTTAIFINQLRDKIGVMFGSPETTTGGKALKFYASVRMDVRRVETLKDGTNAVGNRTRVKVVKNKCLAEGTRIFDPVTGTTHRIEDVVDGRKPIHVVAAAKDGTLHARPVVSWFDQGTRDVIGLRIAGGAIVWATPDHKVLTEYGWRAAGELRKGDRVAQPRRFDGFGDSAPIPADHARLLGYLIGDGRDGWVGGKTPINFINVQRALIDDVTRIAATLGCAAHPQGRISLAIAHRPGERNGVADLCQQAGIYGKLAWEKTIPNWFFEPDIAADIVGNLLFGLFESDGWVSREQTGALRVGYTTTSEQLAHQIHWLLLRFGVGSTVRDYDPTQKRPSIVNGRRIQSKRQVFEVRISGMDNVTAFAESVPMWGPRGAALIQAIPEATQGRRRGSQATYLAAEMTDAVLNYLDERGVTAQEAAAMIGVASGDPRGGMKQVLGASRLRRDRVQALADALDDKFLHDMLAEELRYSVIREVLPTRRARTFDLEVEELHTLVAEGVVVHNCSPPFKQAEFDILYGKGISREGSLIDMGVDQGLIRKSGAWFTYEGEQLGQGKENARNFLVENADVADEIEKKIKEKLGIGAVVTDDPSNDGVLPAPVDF
Put plainly: Fluorescence Cell-Free Homogeneous Dose Retest to Identify Inhibitors of RecA-Intein Splicing Activity. [Related pubchem assays (depositor defined):AID2097, AID2223, AID489010, AID492950]. Format: functional.

Test [9] deals with Estrogen receptor beta (Homo sapiens, UniProt Q92731). The experiment in a line: ERβ–SRC-3 coactivator interaction inhibitors, confirmation, orthogonal assay, biochemical, ELISA, streptavidin-HRP readout (AID 1060). In general terms: An ELISA detects its analyte on a solid surface through an enzyme-linked reagent.
Test [10] in a line: inhibitors of intracellular T. cruzi replication, confirmation, NIH3T3 host cells, beta-gal luminescence (AID 2044).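 Also: intracellular parasites grown in NIH/3T3 mouse fibroblasts as host cells; luminescent beta-galactosidase reporter signal from transgenic T. cruzi replicating inside host cells; inhibitors lower the luminescence signal.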 Type of test: functional, cell-based.
A short description of test [11]: growth suppression of beta-catenin-knockout colon cells, dose response, cell-based, HCT116, human colon tumor (AID 1045).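 Also: HCT116 colon tumor cells with beta catenin knocked out; cells exposed to compound for 60 hours.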 Format: functional.
Test [12] deals with Nonstructural protein 1 (Influenza A virus, UniProt Q194T2). Type of test: functional, Influenza A virus (A/California/07/2009(H1N1)).
Test [13] is described as follows: NIH-3T3 fibroblast cytotoxicity, dose response, cytotoxicity control, cell-based, fluorescence, Alamar Blue, secondary assay (AID 2327).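 Also: NIH-3T3 mouse fibroblasts cultured with fluconazole at 8 µg/mL.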 Format: functional.
Test [14] concerns the target T3, Replicative DNA helicase DnaB (Mycobacterium tuberculosis, UniProt P9WMR3).
T3 sequence (P9WMR3 whole entry): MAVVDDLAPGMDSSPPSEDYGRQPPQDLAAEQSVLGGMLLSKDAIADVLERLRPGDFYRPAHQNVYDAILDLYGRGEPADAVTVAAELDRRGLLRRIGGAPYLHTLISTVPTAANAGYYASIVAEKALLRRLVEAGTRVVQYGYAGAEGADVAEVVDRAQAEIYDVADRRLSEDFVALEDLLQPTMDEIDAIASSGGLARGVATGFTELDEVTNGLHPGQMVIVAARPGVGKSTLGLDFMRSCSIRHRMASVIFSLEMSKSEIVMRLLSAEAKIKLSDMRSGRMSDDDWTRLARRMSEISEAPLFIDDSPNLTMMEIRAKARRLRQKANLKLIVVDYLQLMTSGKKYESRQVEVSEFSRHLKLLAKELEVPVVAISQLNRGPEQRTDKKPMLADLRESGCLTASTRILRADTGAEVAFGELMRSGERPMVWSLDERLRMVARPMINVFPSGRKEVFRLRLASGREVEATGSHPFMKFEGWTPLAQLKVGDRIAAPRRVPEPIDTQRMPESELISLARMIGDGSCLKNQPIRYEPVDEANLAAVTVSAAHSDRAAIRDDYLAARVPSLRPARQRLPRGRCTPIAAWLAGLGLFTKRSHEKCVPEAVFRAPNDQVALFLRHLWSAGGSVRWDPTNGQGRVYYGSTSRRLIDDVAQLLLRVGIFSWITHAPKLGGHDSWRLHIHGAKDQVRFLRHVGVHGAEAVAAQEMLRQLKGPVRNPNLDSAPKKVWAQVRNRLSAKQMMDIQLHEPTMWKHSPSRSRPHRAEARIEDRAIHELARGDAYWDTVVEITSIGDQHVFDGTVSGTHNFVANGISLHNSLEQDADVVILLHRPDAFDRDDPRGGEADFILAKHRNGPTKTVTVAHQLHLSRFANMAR
Put plainly: DnaB intein splicing inhibitors, dose response, biochemical, cell-free fluorescence (AID 449749). Type of test: functional.

The target in test [15] is ATP-dependent molecular chaperone HSP82 (Candida albicans (strain WO-1) (Yeast), UniProt C4YTQ8). The experiment in a line: loss of DOC-induced GRE-beta-galactosidase reporter signal, dose response, Hsp90 inhibitor project, S. cerevisiae, luminescence (AID 2400).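 Also: beta-galactosidase luminescence from glucocorticoid response element reporter as proxy for Hsp90 function; inhibitor potency where signal loss means Hsp90 inhibition.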 Type of test: functional, cell-based.
Test [16] in a line: C. albicans growth with fluconazole, confirmation, fluorescence, retest (AID 2467). Type of test: functional, cell-based.
The target in test [17] is Serine/threonine-protein phosphatase (Candida dubliniensis (strain CD36 / CBS 7987 / NCPF 3949 / NRRLY-17841) (Yeast), UniProt B9W6M3). Put plainly: calcineurin pathway inhibitors in yeast reporter, dose response, S. cerevisiae, CDRE-lacZ, luminescence, secondary (AID 2388).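 Also: yeast reporter cells carrying a calcineurin-responsive lacZ construct stimulated with calcium chloride; luminescent beta-galactosidase reporter signal in whole cells rather than isolated phosphatase activity; potency for inhibition where a drop in reporter signal means calcineurin blockade.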 Type of test: functional, cell-based.
Test [18] deals with T4, Heat shock factor protein 1 (Mus musculus, UniProt P38532).
T4 sequence (P38532 whole entry): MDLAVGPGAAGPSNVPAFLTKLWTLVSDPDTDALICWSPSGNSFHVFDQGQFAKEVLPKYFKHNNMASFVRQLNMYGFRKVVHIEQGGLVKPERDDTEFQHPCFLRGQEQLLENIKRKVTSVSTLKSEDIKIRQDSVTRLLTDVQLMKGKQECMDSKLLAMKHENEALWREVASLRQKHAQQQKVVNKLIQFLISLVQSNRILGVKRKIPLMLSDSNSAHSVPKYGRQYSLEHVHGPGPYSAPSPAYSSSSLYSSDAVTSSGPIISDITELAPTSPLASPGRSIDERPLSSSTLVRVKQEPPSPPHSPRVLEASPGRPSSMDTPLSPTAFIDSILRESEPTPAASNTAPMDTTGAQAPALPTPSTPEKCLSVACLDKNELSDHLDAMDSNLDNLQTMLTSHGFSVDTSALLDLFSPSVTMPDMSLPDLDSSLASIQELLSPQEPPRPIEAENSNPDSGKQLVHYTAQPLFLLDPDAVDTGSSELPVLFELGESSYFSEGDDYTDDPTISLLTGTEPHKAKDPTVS
The experiment in a line: inhibition of MG132-induced HSE-luciferase signal, confirmation, cell-based, NIH3T3, luminescence, dose retest (AID 2382).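 Also: NIH3T3 fibroblasts with HSF1-driven luciferase reporter stressed by proteasome inhibitor MG132; luminescence from HSF1-driven luciferase expression after 8 hours of MG132 stress.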 Format: functional.

Test [19] is described as follows: cytotoxicity toward NIH3T3 fibroblasts, dose response, counter-screen, cell-based, ATP luminescence, mouse fibroblasts (AID 2010).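 Also: cells exposed to compound for about 90 hours before reading.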 Type of test: functional.
The nature of test [20]: growth suppression of PTEN-null colon cells, dose response, cell-based, HCT116 PTEN knockout (AID 1047).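 Also: HCT116 colon tumor cells with PTEN knocked out; cells exposed to compound for 60 hours before readout; potency for loss of cell viability measured by luminescence.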 Type of test: functional.

For orientation: EC50 means the concentration that produces a half-maximal response. A word on the AC50: it is the midpoint of the concentration-response curve, whichever way the signal moves. What is called IC50 is the concentration that gives 50% inhibition.

Activity calls are given as the source filed them.

Sequence of 5-hydroxytryptamine receptor 5A (P47898 whole entry): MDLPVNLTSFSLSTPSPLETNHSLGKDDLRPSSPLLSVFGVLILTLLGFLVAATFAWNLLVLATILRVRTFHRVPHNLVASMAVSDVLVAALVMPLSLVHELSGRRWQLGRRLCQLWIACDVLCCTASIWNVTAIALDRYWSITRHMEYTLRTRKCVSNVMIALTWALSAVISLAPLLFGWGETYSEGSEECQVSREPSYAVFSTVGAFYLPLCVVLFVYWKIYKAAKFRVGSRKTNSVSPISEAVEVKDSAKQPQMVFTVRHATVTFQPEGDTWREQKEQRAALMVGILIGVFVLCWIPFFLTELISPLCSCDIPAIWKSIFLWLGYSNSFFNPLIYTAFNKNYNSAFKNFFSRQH
Sequence of ATP-dependent molecular chaperone HSP82 (C4YTQ8 whole entry): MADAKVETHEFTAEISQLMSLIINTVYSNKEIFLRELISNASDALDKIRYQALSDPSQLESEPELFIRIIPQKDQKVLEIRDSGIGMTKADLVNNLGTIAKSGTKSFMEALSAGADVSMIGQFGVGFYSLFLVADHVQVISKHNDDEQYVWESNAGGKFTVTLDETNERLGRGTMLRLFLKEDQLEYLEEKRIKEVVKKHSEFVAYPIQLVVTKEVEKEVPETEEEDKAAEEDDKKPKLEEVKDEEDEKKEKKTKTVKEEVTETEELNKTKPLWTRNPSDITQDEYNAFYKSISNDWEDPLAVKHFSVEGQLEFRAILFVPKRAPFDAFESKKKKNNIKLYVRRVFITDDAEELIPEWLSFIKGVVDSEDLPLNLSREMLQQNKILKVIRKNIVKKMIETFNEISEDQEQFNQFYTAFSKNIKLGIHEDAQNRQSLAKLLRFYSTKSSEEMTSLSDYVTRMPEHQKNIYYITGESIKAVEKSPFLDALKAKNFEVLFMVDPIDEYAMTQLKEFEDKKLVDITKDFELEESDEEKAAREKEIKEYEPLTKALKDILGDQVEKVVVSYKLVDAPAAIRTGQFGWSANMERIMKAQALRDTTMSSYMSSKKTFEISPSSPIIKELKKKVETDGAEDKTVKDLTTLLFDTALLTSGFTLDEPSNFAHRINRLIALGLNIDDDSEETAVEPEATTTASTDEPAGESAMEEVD
Sequence of Delta-type opioid receptor (P41143 whole entry): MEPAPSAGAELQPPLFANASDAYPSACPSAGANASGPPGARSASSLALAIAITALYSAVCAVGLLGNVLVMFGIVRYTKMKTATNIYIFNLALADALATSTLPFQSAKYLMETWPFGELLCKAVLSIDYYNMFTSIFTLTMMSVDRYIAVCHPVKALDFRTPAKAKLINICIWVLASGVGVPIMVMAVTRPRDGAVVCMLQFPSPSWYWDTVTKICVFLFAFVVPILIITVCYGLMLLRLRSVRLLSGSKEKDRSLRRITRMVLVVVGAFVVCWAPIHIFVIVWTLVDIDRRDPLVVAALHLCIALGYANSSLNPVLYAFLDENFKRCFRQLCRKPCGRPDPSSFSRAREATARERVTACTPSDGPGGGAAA
Sequence of Serine/threonine-protein phosphatase (B9W6M3 whole entry): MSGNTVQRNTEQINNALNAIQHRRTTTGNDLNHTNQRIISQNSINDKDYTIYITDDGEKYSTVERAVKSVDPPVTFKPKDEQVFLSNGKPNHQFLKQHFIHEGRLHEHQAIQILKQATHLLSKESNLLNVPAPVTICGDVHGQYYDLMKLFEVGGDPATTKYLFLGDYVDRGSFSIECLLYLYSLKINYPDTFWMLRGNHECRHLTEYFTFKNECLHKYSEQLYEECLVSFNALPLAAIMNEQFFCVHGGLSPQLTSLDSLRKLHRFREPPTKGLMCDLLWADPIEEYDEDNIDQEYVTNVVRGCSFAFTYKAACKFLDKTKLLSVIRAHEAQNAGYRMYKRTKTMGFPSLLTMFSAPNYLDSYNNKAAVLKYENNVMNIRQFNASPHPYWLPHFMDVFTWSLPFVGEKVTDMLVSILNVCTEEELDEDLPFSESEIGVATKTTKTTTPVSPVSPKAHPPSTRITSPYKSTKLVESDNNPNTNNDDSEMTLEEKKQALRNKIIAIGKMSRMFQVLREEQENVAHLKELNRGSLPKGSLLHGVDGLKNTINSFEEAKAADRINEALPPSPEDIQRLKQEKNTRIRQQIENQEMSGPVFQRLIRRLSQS
Sequence of Mu-type opioid receptor (P35372 whole entry): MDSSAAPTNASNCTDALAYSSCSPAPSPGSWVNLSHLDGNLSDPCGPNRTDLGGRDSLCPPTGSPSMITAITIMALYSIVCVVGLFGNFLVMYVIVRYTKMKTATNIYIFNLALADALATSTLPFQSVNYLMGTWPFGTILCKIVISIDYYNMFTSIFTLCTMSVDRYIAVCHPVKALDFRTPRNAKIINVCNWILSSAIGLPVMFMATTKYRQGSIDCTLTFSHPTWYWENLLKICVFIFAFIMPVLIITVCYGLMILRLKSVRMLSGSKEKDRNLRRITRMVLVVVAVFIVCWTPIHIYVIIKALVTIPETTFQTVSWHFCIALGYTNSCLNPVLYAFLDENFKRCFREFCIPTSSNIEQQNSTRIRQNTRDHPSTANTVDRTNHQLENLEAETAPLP
Sequence of Cytochrome P450 3A4 (P08684 whole entry): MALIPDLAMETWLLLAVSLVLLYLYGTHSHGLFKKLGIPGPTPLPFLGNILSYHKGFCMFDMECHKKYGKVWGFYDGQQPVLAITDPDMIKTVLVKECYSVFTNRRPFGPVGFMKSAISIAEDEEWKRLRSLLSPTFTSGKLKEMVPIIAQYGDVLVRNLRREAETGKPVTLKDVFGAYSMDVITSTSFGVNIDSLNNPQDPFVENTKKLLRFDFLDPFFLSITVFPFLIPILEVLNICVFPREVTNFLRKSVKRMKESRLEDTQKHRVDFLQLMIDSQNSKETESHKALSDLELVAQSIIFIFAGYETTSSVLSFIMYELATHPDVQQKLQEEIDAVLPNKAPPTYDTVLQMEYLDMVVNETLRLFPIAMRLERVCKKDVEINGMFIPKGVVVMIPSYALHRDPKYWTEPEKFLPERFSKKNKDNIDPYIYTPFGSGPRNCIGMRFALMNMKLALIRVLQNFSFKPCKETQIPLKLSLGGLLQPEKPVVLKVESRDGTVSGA
Sequence of Cytochrome P450 2C19 (P33261 whole entry): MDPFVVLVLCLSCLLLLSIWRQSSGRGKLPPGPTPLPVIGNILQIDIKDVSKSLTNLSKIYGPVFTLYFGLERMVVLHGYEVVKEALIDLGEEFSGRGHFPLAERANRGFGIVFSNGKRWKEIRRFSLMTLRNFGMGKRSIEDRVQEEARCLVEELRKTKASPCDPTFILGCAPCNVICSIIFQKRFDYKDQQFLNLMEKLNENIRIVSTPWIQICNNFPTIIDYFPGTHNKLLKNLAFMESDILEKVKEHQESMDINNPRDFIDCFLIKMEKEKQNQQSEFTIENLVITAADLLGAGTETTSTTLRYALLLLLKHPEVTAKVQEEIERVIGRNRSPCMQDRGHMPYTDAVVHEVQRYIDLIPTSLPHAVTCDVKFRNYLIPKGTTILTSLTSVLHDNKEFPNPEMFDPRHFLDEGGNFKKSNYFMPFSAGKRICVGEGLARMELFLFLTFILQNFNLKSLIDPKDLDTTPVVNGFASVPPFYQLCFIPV
Sequence of Estrogen receptor beta (Q92731 whole entry): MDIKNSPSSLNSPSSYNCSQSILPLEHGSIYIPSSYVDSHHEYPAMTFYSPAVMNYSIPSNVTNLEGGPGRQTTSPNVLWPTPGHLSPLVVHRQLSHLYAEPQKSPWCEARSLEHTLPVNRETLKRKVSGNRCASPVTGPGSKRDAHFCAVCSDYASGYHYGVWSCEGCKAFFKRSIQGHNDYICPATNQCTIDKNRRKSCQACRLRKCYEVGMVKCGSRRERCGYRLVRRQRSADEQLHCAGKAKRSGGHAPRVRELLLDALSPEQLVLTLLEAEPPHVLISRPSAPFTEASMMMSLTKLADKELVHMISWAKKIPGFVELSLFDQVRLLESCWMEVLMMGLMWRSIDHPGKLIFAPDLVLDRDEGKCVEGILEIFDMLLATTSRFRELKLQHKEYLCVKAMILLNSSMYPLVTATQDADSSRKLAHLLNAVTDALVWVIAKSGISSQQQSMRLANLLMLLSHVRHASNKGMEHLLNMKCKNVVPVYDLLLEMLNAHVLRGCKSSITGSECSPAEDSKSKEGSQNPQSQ
Sequence of Nonstructural protein 1 (Q194T2 whole entry): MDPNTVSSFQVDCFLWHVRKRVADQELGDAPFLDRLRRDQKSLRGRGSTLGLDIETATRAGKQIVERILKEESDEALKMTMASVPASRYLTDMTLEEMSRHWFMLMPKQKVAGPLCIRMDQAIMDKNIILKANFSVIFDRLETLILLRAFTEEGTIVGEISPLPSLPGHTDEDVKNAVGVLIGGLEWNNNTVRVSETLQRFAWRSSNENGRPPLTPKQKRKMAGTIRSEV

Consider `CN1C2C=C(N(CCc3c[nH]c4ccccc34)C(=O)c3ccc(Cl)cc3)CC1CC2` (stereo not given), for which the EC50 in test [1] was > 92.5 µM (inactive); in [2] it was 0.211 µM (active); in test [3], 0.596 µM (active); in test [4], 47.9 µM (inactive); in test [5], > 92.5 µM (inactive). Besides, the AC50 in test [6] was 5.01 µM (inconclusive); in [7], 17.8 µM (inconclusive).
Regarding `CSCCCNC(=O)c1ccc(OC2CCN(CCc3ccccc3)CC2)cc1`, the EC50 in [1], in test [4] and in test [5] was > 92.5 µM (inactive) throughout.
Take `CCN1CCN(C(c2cccnc2)c2cc(Cl)c3cccnc3c2O)CC1` (stereo not given): the EC50 was 1.8 µM (active) in test [8]; 2.13 µM (active) in test [10]; 15.1 µM (active) in [11]; > 150 µM (inactive) in [13]; > 150 µM (inactive) in test [15]; 0.916 µM (active) in [16]. Moreover, the EC50 in test [17] was > 180 µM (inactive); in [18], > 195 µM (not active); in test [19] it was > 60 µM (not active); in test [20], 12.7 µM (active). The figures for the IC50 in test [9] and in [12] were 2.39 µM (not active) and 17.8 µM (active), respectively. Moreover, the AC50 in [14] was > 380 µM (inactive).
For the compound `CCn1c(Sc2nc(C)nc3scc(-c4cccs4)c23)n[nH]c1=O`, the values for the EC50 in test [15] and in test [17] were 30.7 µM (active) and > 180 µM (inactive), respectively.
